Test results reported in US4708966A, “Novel anti-inflammatory agents, pharmaceutical compositions and methods for reducing inflammation” (The Procter & Gamble Company, priority 1986, dated 1987).

Tested on: adjuvant arthritis (modified Freund's adjuvant)
Assay: Adjuvant Arthritis - Therapeutic
Assay type: in vivo, Male Sprague-Dawley rats
Conditions: 0.5 mg/kg, 1 x/day, oral, days 20 through 28
Description: Adjuvant Arthritis Methodology
Male Sprague-Dawley rats weighing 167-170 gm are allowed to acclimate to the laboratory for at least 3 days. Ten rats are then assigned to the healthy control group and the remaining rats are assigned to the arthritic group. On day 0, the rats in the arthritic group are injected subcutaneously in the middle of their tail with a modified Freund's adjuvant (MFA) at a dosage of 0.05 ml/100 gm body weight. The MFA is made by grinding Mycobacterium butyricum (Mb) and then mixing with mineral oil at a concentration of 10 mg Mb/ml of mineral oil. This is mixed in an Omni mixer for 45 minutes.
Paw volumes and body weights are determined on days -1, 6, 13, 19, 26, and 29. On day 19, paw volume changes from day -1 are determined for the arthritic group. The rats with paw volume changes≥0.50 ml but ≤2.50 ml are randomized by paw volume changes into the treatment groups on day 20. […] On day 29, two representative rats from each treatment group are photographed, paw volumes and body weights are determined, and then the rats are sacrificed with CO2 and x-rays are taken.
The radiographs are used to grade bone resorption. Bone resorption is graded in 20 areas of the fore and hind paws. The areas for grading on the hind paw are: distal femur end, proximal tibia and tibula, distal end of the tibia and the small bone under the tibia, calcaneous, tarsus, and metatarsus. The areas on the fore paws are: radius, ulna, carpus, and metacarpus. Each area is given a grade of 0 (no resorption) or 1 (resorption) for possible grade of 20 of each animal.

COc1ccc2c(c1)c(CC(=O)O)c(C)n2C(=O)c1ccc(Cl)cc1 [Indomethacin, reference compound]
Body Weights % Increase: 7% | Bone Resorption % Inhibition: 15% | Paw Volume % Decrease: 43%
